Test results from publication PMC5719074, “Electrostatic Map Of Proteasome α-Rings Encodes The Design of Allosteric Porphyrin-Based Inhibitors Able To Affect 20S Conformation By Cooperative Binding” (Scientific Reports, 2017).

What was measured:
[1] = target: human 20S proteasome T-L activity; settings: read-out: IC50 T-L; 2 nM 20S, 30 min at 37°C, 100 µM substrate
[2] = target: human 20S proteasome PGPH-L activity; settings: read-out: IC50 PGPH-L; 2 nM 20S, 30 min at 37°C, 100 µM substrate
[3] = target: human 20S proteasome ChT-L activity; settings: read-out: IC50 ChT-L; 2 nM 20S, 30 min at 37°C, 100 µM substrate
human 20S proteasome = system: T1, human 20S proteasome; design: method as in PMID 22642538; settings: cited from earlier work
T1 construct: purchased Boston Biochem (Cambridge, MA, USA)

[4] = system: wild-type yeast 20S proteasome; assay: UV stopped-flow binding kinetics; settings: first cluster, 37 °C
Text: (§1) The analysis of kinetic progress curves, employing Eq. (S8), allows to obtain the values of k obs at different porphyrin concentrations, which can be exploited, for a classical bimolecular behavior, to obtain the association and dissociation rate constants according to Eq. (1a)1a kobs=kon⋅[Porph]+koff […]
(§2) Therefore, the classical bimolecular behavior, as from Eq. (1a), has been modified accordingly:1b kobs=(kc⋅Pc/Ptot+ko⋅Po/Ptot)⋅[Porph]+koff where k c and k o are the porphyrin binding rate constants to the 20S proteasome in the “closed” and in the “open” conformation, respectively, k off is the dissociation rate constant of the porphyrin, P c and P o are the relative percentage of the two conformations (“closed” and “open”, respectively) as a function of porphyrin concentration, as from Eqs. (S4–S7) (see SI). […]
(§3) Cooperativity for Porphyrin Binding. In the presence of (at least) two states (i.e., “open” and […]
(§4) corresponds to the population of “closed” 20S as a function of porphyrin concentration (with Kc being the porphyrin equilibrium binding constant for this conformation) and Po […]
(§5) Refers to the population of “open” 20S as a function of porphyrin concentration, Ko being the equilibrium porphyrin binding constant and L is the conformationa l equilibrium between the two states in the absence of porphyrins, as from Eq. (S6)

[5] = system: α-3ΔN mutant of yeast 20S proteasome; assay: UV stopped-flow binding kinetics; settings: simple bimolecular binding, 37 °C
Text: as §1, §2, §3, §4, §5

α-3ΔN yeast mutant 20S = assay: Steady-state kinetic analysis (Lineweaver-Burk), Suc-LLVY-AMC; format: biochemical; settings: yeast mutant α-3ΔN (open conformation)
Text: (§6) Proteasome activity assay.
(§7) Latent Core Particles (CP).
(§8) in a 384 multiwell black plate.
(§9) The IC50 is defined as the
(§10) double-reciprocal Lineweaver-Burk plot
(§11) squares. […] The goodness of fit was
(§12) [Etot ] = KI ⋅ 1 + 1 (S3a)
(§13) or an un-competitive inhibition equation:
(§14) [Etot ] = Km ⋅ 1 + KI (S3b)
(§15) or else a mixed inhibition equation: […]
(§16) different affinity for the two forms.
(§17) Cooperativity for Porphyrin Binding.
(§18) be described by Eq. (1b) 2 where Pc

[6] = system: wild-type yeast 20S proteasome; assay: as above; format: biochemical
Text: as §6, §7, §8, §9, §10, §11, §12, §13, §14, §15, §16, §17, §18

| SMILES | IC50 [1] [nM] | IC50 [2] [nM] | IC50 [3] [nM] | inhibition mechanism (human 20S proteasome) | L, open/closed conformational equilibrium in the absence of porphyrins [4] | kc, binding rate constant, closed conformation [4] [M⁻¹ s⁻¹] | ko, binding rate constant, open conformation [4] [M⁻¹ s⁻¹] | ko, binding rate constant [5] [M⁻¹ s⁻¹] | inhibition mechanism (α-3ΔN yeast mutant 20S) | inhibition mechanism [6] |
| --- | --- | --- | --- | --- | --- | --- | --- | --- | --- | --- |
| C[n+]1ccc(-c2c3nc(c(-c4cc[n+](C)cc4)c4ccc([nH]4)c(-c4cc[n+](C)cc4)c4nc(c(-c5cc[n+](C)cc5)c5ccc2[nH]5)C=C4)C=C3)cc1 [compound 1, meso-tetrakis(4-N-methylpyridyl) porphyrin] | 640 | 140 | 393 | competitive and reversible inhibitor |  |  |  |  |  |  |
| C[n+]1ccc(-c2ccc(-c3c4nc(c(-c5ccc(-c6cc[n+](C)cc6)cc5)c5ccc([nH]5)c(-c5ccc(-c6cc[n+](C)cc6)cc5)c5nc(c(-c6ccc(-c7cc[n+](C)cc7)cc6)c6ccc3[nH]6)C=C5)C=C4)cc2)cc1 [compound 2, meso-tetrakis(4-N-methylphenylpyridyl)-porphyrin] |  |  |  |  | 4.0 × 10^−6 | 130 | 7e+06 | 2.5e+06 | competitive inhibitor | almost pure non-competitive |
